Assay results reported in patent US11447498B2, “Fused tetracyclic compounds and uses thereof in medicine” (SUNSHINE LAKE PHARMA CO., LTD., priority 2018, dated 2022).

Assays:
HBV DNA replication = assay: Inhibition experiment on HBV virus replication (HepG 2,2,15 cells, supernatant HBV DNA by qPCR); assay type: cell-based; conditions: Hepatitis B virus, HepG2.2.15, 10 days treatment, supernatant HBV DNA on day 11
Description: (§1) The chromosomal integration of HepG2,2,15 cells (SELLS, PNAS, 1987 and SELLS, JV, 1988) has a complete HBV genome and stably expresses viral RNA and viral proteins. HepG2,2,15 cells are capable of secreting mature hepatitis B virus particles and HBsAg into the culture medium. Virus particles DNA and HBsAg secreted by HepG 2,2,15 cells can be quantified by qPCR and ELISA, and the effects of compounds on viral replication and HBsAg secretion can be detected.
(§2) HepG 2,2,15 cells were inoculated with 8,000 per cell to 96-well cell culture plates in duplicate, and were cultured for 3 days until the cells grew to full-hole. Cells were treated with 4-fold serial dilutions of compounds for 10 days, and were given once every other day. The final concentration of DMSO in all pores was 0.5% and DMSO was used as a drug-free control. The supernatant was collected for quantitative detection of HBV DNA on day 11.
Viral genomic DNA was detected by qPCR method, and HBV primers were as follows: […]
The SYBR Premix Ex Taq D-Takara DRR081S kit was used, and 1 μL of cell culture supernatant was used as a template. A standard curve was made using a plasmid containing the HBV genome, and the viral copy number was calculated using the standard curve. Concentration-virus copy number was processed using Graphpad Prism 5 software, and IC50 of compounds inhibiting virus replication was calculated by four-parameter nonlinear regression model.

HBsAg secretion = assay: Inhibition experiment on HBsAg secretion (HepG 2,2,15 cells, ELISA); assay type: cell-based; conditions: Hepatitis B virus, HepG2.2.15, read-out: HBsAg IC50
Description: as §1
as §2, with “HBsAg” for “HBV DNA”
The level of HBsAg secreted by the cells after treatment of the compound was detected by ELISA method, and the method used a hepatitis B surface antigen diagnostic kit (Shanghai Kehua Biotech Co., Ltd. S10910113). 25 μL of the supernatant to be assayed (PBS was diluted to 75 μL) was added to per well in the ELISA plate, and the kit positive control and negative control were set. The ELIS A plate was blocked with a cover paper and incubated at 37° C. for 60 minutes. The ELISA plate was taken out, and the cover paper was teared off, and 50 μL of enzyme conjugate was added to each well. The ELISA plate was oscillated on the shaker for 10 seconds, blocked with a cover paper and incubated at 37° C. for 30 minutes. The ELISA plate was taken out, the cover paper was teared off, and the ELISA plate was washed 5 times: each time the liquid in the hole was discarded, and the washing liquid was filled into the holes, left to stand for 60 seconds, dried, and the liquid residue was patted to dry on the absorbent paper. A freshly prepared mixture of Developer A and Developer B was added to all wells immediately after washing: 100 μL per well. The ELISA plate was oscillated on the shaker for 10 seconds, blocked with a cover paper and incubated at 37° C. for 30 minutes. 50 μL of stop solution was added to all wells. Absorbance was read on the Envision plate reader at a wavelength of 450 nm.
Concentration-HBsAg OD450 was processed using Graphpad Prism 5 software, and IC50 of compounds inhibiting against HBsAg secretion was calculated by four-parameter nonlinear regression model.

SMILES: COCCCOc1cc2c(c3c1OCC3)-c1cc(=O)c(C(=O)O)cn1N(C(C)C)C2 [Example 16, 7-Isopropyl-4-(3-methoxypropoxy)-11-oxo-2,6,7,11-tetrahydro-1H-furo[2,3-h]pyrido[2,1-a]phthalazine-10-carboxylic Acid]
- IC50 (HBV DNA replication): 2.49 nM

SMILES: CC(C)C1Cc2cc(OCCc3ccccc3)c3c(c2-c2cc(=O)c(C(=O)O)cn21)CCO3 (centres unmarked) [Example 6, 7-Isopropyl-11-oxo-4-phenylethoxy-2,6,7,11-tetrahydro-1H-furo[2,3-h]pyrido [2,1-a]isoquinoline-10-carboxylic Acid]
- IC50 (HBsAg secretion): 1.92 nM
- IC50 (HBV DNA replication): 0.86 nM

SMILES: CC(C)C1Cc2cc(OCCC3CC3)c3c(c2-c2cc(=O)c(C(=O)O)cn21)CC(C)(C)O3 (centres unmarked) [Example 40, 4-(2-Cyclopropylethoxy)-7-isopropyl-2,2-dimethyl-11-oxo-2,6,7,11-tetrahydro-1H-furo[2,3-h]pyrido[2,1-a]isoquinoline-10-carboxylic Acid]
- IC50 (HBsAg secretion): 0.54 nM
- IC50 (HBV DNA replication): 1.45 nM

SMILES: CC(C)[C@@H]1Cc2cc(-c3cnn(C(F)F)c3)c3c(c2-c2cc(=O)c(C(=O)O)cn21)CCO3 [Example 10A, 4-(1-(Difluoromethyl)-1H-pyrazol-4-yl)-7-isopropyl-11-oxo-2,6,7,11-tetrahydro-1H-furo[2,3-h]pyrido[2,1-a]isoquinoline-10-carboxylic Acid]
- IC50 (HBsAg secretion): 0.54 nM

SMILES: CC(C)C1Cc2cc(-c3nccs3)c3c(c2-c2cc(=O)c(C(=O)O)cn21)CCO3 (centres unmarked) [Example 8, 7-isopropyl-11-oxo-4-(thiazol-2-yl)-2,6,7,11-tetrahydro-1H-furo[2,3-h]pyrido [2,1-a]isoquinoline-10-carboxylic Acid]
- IC50 (HBsAg secretion): 1.63 nM
- IC50 (HBV DNA replication): 0.52 nM

SMILES: CC(C)C1Cc2cc(-c3cnn(C4CCC4)c3)c3c(c2-c2cc(=O)c(C(=O)O)cn21)CCO3 (centres unmarked) [Example 33, 4-(1-Cyclobutyl-1H-pyrazol-4-yl)-7-isopropyl-11-oxo-2,6,7,11-tetrahydro-1H-furo[2,3-h]pyrido[2,1-a]isoquinoline-10-carboxylic Acid]
- IC50 (HBsAg secretion): 1.36 nM
- IC50 (HBV DNA replication): 1.23 nM

SMILES: CC(C)C1Cc2cc(-c3cnn(C(F)F)c3)c3c(c2-c2cc(=O)c(C(=O)O)cn21)CCO3 (centres unmarked) [Example 10, 4-(l (Difluoromethyl)-1H-pyrazol-4-yl)-7-isopropyl-11-oxo-2,6,7,11-tetrahydro-1H-furo[2,3-h]pyrido[2,1-a]isoquinoline-10-carboxylic Acid]
- IC50 (HBsAg secretion): 2.34 nM
- IC50 (HBV DNA replication): 0.98 nM

SMILES: COc1ccc(-c2cc3c(c4c2OCC4)-c2cc(=O)c(C(=O)O)cn2C(C(C)C)C3)cc1 (centres unmarked) [Example 26, 7-Isopropyl-4-(4-methoxyphenyl)-11-oxo-2,6,7,11-tetrahydro-1H-furo[2,3-h]pyrido[2,1-a]isoquinoline-10-carboxylic Acid]
- IC50 (HBsAg secretion): 1.33 nM
- IC50 (HBV DNA replication): 1.09 nM

SMILES: CC(C)C1Cc2cc(OCCC(F)(F)F)c3c(c2-c2cc(=O)c(C(=O)O)cn21)CCO3 (centres unmarked) [Example 7, 7-Isopropyl-11-oxo-4-(3,3,3-trifluoropropoxy)-2,6,7,11-tetrahydro-1H-furo [2,3-h]pyrido[2,1-a]isoquinoline-10-carboxylic Acid]
- IC50 (HBV DNA replication): 1.87 nM

SMILES: CC(C)CCOc1cc2c(c3c1OCC3)-c1cc(=O)c(C(=O)O)cn1C(C(C)C)C2 (centres unmarked) [Example 21, 4-(Isopentyloxy)-7-isopropyl-11-oxo-2,6,7,11-tetrahydro-1H-furo[2,3-h]pyrido [2,1-a]isoquinoline-10-carboxylic Acid]
- IC50 (HBsAg secretion): 1.55 nM

SMILES: CC(C)C1Cc2cc(-c3ccncc3)c3c(c2-c2cc(=O)c(C(=O)O)cn21)CCO3 (centres unmarked) [Example 29, 7-Isopropyl-11-oxo-4-(pyridine-4-yl)-2,6,7,11-tetrahydro-1H-furo[2,3-h]pyrido [2,1-a]isoquinoline-10-carboxylic Acid]
- IC50 (HBsAg secretion): 2.64 nM
- IC50 (HBV DNA replication): 0.97 nM

SMILES: CC(C)C1Cc2cc(-c3ccc(-c4ccccc4)cc3)c3c(c2-c2cc(=O)c(C(=O)O)cn21)CCO3 (centres unmarked) [Example 25, 4-([1,1′-Biphenyl]-4-yl)-7-isopropyl-11-oxo-2,6,7,11-tetrahydro-1H-furo[2,3-h]pyrido[2,1-a]isoquinoline-10-carboxylic Acid]
- IC50 (HBsAg secretion): 1.4 nM
- IC50 (HBV DNA replication): 0.72 nM

SMILES: CC(C)C1Cc2cc(-c3cnn(C4CCOCC4)c3)c3c(c2-c2cc(=O)c(C(=O)O)cn21)CCO3 (centres unmarked) [Example 34, 7-Isopropyl-11-oxo-4-(1-(tetrahydro-2H-pyran-4-yl)-1H-pyrazol-4-yl)-2,6,7,11-tetrahydro-1H-furo[2,3-h]pyrido[2,1-a]isoquinoline-10-carboxylic Acid]
- IC50 (HBsAg secretion): 2.37 nM
- IC50 (HBV DNA replication): 3.72 nM

SMILES: COc1cccc(-c2cc3c(c4c2OCC4)-c2cc(=O)c(C(=O)O)cn2C(C(C)C)C3)c1 (centres unmarked) [Example 27, 7-Isopropyl-4-(3-methoxyphenyl)-11-oxo-2,6,7,11-tetrahydro-1H-furo[2,3-h]pyrido[2,1-a]isoquinoline-10-carboxylic Acid]
- IC50 (HBsAg secretion): 4.65 nM
- IC50 (HBV DNA replication): 2.54 nM

SMILES: CC(C)C1Cc2cc(-c3ccco3)c3c(c2-c2cc(=O)c(C(=O)O)cn21)CCO3 (centres unmarked) [Example 1, 4-(Furan-2-yl)-7-isopropyl-11-oxo-2,6,7,11-tetrahydro-1H-furo[2,3-h]pyrido[2,1-a]isoquinoline-10-carboxylic Acid]
- IC50 (HBsAg secretion): 4.21 nM
- IC50 (HBV DNA replication): 2.36 nM

SMILES: CC(C)n1cc(-c2cc3c(c4c2OCC4)-c2cc(=O)c(C(=O)O)cn2N2C3CCC2(C)C)cn1 (centres unmarked) [Example 14, 5-(1-Isopropyl-1H-pyrazol-4-yl)-1,1-dimethyl-10-oxo-2,3,3a,7,8,10-hexahydro-1H-furo[3,2-f]pyrido[1,2-c]pyrrolo[2,1-a]phthalazine-11-carboxylic Acid]
- IC50 (HBsAg secretion): 0.38 nM
- IC50 (HBV DNA replication): < 0.24 nM

SMILES: CC(C)C1Cc2cc(OCC3CCCC3)c3c(c2-c2cc(=O)c(C(=O)O)cn21)CCO3 (centres unmarked) [Example 22, 4-(Cyclopentylmethoxy)-7-isopropyl-11-oxo-2,6,7,11-tetrahydro-1H-furo[2,3-h]pyrido[2,1-a]isoquinoline-10-carboxylic Acid]
- IC50 (HBV DNA replication): 2.26 nM

SMILES: O=C(O)c1cn2c(cc1=O)-c1c(cc(OCCC3CC3)c3c1CCO3)CN2c1nccs1 [Example 47, 4-(2-Cyclopropylethoxy)-11-oxo-7-(thiazol-2-yl)-2,6,7,11-tetrahydro-1H-furo [2,3-h]pyrido[2,1-a]phthalazine-10-carboxylic Acid]
- IC50 (HBV DNA replication): 3.31 nM

SMILES: CC(C)C1Cc2cc(-c3cccs3)c3c(c2-c2cc(=O)c(C(=O)O)cn21)CCO3 (centres unmarked) [Example 11, 7-Isopropyl-11-oxo-4-(thiophen-2-yl)-2,6,7,11-tetrahydro-1H-furo[2,3-h]pyrido[2,1-a]isoquinoline-10-carboxylic Acid]
- IC50 (HBsAg secretion): 0.92 nM
- IC50 (HBV DNA replication): 0.78 nM

SMILES: CC(C)C1Cc2cc(-c3cnn(C(F)F)c3)c3c(c2-c2cc(=O)c(C(=O)O)cn21)CC(C)(C)O3 (centres unmarked) [Example 41, 4-(1-(Difluoromethyl)-1H-pyrazol-4-yl)-7-isopropyl-2,2-dimethyl-11-oxo-2,6,7,11-tetrahydro-1H-furo[2,3-h]pyrido[2,1-a]isoquinoline-10-carboxylic Acid]
- IC50 (HBsAg secretion): 0.54 nM
- IC50 (HBV DNA replication): 2.09 nM

SMILES: COCCCOc1cc2c(c3c1OC(C)(C)C3)-c1cc(=O)c(C(=O)O)cn1C(C(C)C)C2 (centres unmarked) [Example 39, 7-Isopropyl-4-(3-methoxypropoxy)-2,2-dimethyl-11-oxo-2,6,7,11-tetrahydro-1H-furo[2,3h]pyrido[2,1-a]isoquinoline-10-carboxylic Acid]
- IC50 (HBsAg secretion): 0.91 nM
- IC50 (HBV DNA replication): 1.65 nM

SMILES: CC(C)[C@@H]1Cc2cc(OCCC3CC3)c3c(c2-c2cc(=O)c(C(=O)O)cn21)CCO3 [Example 3A, (S)-4-(2-Cyclopropylethoxy)-7-isopropyl-11-oxo-2,6,7,11-tetrahydro-1H-furo [2,3-h]pyrido[2,1-a]isoquinoline-10-carboxylic Acid]
- IC50 (HBsAg secretion): 0.76 nM

SMILES: CC(C)C1Cc2cc(OCCOC3CC3)c3c(c2-c2cc(=O)c(C(=O)O)cn21)CCO3 (centres unmarked) [Example 4, 4-(2-Cyclopropoxyethoxy)-7-isopropyl-11-oxo-2,6,7,11-tetrahydro-1H-furo [2,3-h]pyrido[2,1-a]isoquinoline-10-carboxylic Acid]
- IC50 (HBV DNA replication): 3.84 nM
